From ChEMBL document CHEMBL3997829, “Discovery of novel substituted octahydropyrrolo[3,4-c]pyrroles as dual orexin receptor antagonists for insomnia treatment” (Bioorg Med Chem Lett, 2017)
≈ marks a conversion by molar mass, not a printed value. Each block holds one compound with its values, some of them ahead of it.

How the values were obtained:
[1] = biological target: T1, Orexin/Hypocretin receptor type 1 (Homo sapiens, UniProt O43613); assay: Antagonist activity at human orexin 1 receptor expressed in HEK293 cells assessed as inhibition of orexin-induced calcium mobilization after 60 mins by FLIPR assay; assay type: functional, cell-based
T1 sequence (O43613 whole entry): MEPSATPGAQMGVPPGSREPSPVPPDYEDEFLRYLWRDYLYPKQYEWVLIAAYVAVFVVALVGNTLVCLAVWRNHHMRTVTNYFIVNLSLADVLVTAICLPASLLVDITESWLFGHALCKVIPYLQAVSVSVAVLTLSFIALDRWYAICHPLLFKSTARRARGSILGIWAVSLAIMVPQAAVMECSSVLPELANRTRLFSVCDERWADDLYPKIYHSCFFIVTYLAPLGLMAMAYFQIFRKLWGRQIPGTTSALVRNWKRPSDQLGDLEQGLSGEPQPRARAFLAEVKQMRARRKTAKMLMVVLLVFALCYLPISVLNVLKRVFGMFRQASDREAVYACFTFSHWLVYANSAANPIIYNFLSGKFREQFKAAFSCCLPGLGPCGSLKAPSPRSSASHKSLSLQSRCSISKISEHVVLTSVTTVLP

Orexin receptor type 2 = biological target: T2, Orexin receptor type 2 (Homo sapiens, UniProt O43614); assay: Antagonist activity at human orexin 2 receptor expressed in HEK293 cells assessed as inhibition of orexin-induced calcium mobilization after 60 mins by FLIPR assay; assay type: functional, cell-based
T2 sequence (O43614 whole entry): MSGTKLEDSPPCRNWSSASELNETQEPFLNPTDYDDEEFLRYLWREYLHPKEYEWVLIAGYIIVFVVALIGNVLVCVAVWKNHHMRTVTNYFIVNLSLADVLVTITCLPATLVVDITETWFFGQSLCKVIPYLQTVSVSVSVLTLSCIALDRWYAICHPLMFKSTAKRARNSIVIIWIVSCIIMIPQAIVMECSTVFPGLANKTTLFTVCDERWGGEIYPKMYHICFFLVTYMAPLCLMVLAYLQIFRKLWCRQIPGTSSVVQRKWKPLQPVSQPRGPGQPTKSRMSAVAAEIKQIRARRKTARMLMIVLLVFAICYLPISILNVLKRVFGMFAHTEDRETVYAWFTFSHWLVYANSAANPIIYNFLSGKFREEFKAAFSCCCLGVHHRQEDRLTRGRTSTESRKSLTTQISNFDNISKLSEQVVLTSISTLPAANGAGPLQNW

[2] = Thermodynamic solubility of the compound in phosphate buffer at pH 7.4 by HPLC method; assay type: physicochemical; conditions: read-out: Therm_solubility
[3] = Plasma concentration in Sprague-Dawley rat at 10 mg/kg, po at 0.3 hrs; assay type: ADME, organism-based
[4] = Plasma concentration in Sprague-Dawley rat at 10 mg/kg, po at 1 hr; assay type: ADME, organism-based
[5] = Plasma concentration in Sprague-Dawley rat at 10 mg/kg, po at 4 hrs; assay type: ADME, organism-based
Brain [6] = assay: Drug uptake in Sprague-Dawley rat brain at 10 mg/kg, po at 0.3 hrs; assay type: ADME, organism-based; conditions: in vivo
Brain [7] = assay: Drug uptake in Sprague-Dawley rat brain at 10 mg/kg, po at 1 hr; assay type: ADME, organism-based; conditions: in vivo
Brain [8] = assay: Drug uptake in Sprague-Dawley rat brain at 10 mg/kg, po at 4 hrs; assay type: ADME, organism-based; conditions: in vivo
[9] = Ratio of drug level in brain to plasma in Sprague-Dawley rat at 10 mg/kg, po at 0.5 hrs; assay type: ADME, organism-based; conditions: read-out: BPR
[10] = Ratio of drug level in brain to plasma in Sprague-Dawley rat at 10 mg/kg, po at 1 hr; assay type: ADME, organism-based; conditions: read-out: BPR
[11] = Ratio of drug level in brain to plasma in Sprague-Dawley rat at 10 mg/kg, po at 4 hrs; assay type: ADME, organism-based; conditions: read-out: BPR
[12] = Clearance in Sprague-Dawley rat at 2 mg/kg, iv; assay type: ADME, organism-based; conditions: in vivo
[13] = Half life in Sprague-Dawley rat at 2 mg/kg, iv; assay type: ADME, organism-based; conditions: in vivo
[14] = AUC in Sprague-Dawley rat at 15 mg/kg, po; assay type: ADME, organism-based; conditions: in vivo
[15] = Cmax in Sprague-Dawley rat at 15 mg/kg, po; assay type: ADME, organism-based; parameters: dose 15 mg/kg, route oral; conditions: in vivo
[16] = Tmax in Sprague-Dawley rat at 15 mg/kg, po; assay type: ADME, organism-based; conditions: in vivo
[17] = Oral bioavailability in Sprague-Dawley rat at 15 mg/kg; assay type: ADME, organism-based; conditions: in vivo
[18] = biological target: Voltage-gated inwardly rectifying potassium channel KCNH2 (Homo sapiens, UniProt Q12809); assay: Inhibition of human ERG
Chain of Voltage-gated inwardly rectifying potassium channel KCNH2 (Q12809 whole entry): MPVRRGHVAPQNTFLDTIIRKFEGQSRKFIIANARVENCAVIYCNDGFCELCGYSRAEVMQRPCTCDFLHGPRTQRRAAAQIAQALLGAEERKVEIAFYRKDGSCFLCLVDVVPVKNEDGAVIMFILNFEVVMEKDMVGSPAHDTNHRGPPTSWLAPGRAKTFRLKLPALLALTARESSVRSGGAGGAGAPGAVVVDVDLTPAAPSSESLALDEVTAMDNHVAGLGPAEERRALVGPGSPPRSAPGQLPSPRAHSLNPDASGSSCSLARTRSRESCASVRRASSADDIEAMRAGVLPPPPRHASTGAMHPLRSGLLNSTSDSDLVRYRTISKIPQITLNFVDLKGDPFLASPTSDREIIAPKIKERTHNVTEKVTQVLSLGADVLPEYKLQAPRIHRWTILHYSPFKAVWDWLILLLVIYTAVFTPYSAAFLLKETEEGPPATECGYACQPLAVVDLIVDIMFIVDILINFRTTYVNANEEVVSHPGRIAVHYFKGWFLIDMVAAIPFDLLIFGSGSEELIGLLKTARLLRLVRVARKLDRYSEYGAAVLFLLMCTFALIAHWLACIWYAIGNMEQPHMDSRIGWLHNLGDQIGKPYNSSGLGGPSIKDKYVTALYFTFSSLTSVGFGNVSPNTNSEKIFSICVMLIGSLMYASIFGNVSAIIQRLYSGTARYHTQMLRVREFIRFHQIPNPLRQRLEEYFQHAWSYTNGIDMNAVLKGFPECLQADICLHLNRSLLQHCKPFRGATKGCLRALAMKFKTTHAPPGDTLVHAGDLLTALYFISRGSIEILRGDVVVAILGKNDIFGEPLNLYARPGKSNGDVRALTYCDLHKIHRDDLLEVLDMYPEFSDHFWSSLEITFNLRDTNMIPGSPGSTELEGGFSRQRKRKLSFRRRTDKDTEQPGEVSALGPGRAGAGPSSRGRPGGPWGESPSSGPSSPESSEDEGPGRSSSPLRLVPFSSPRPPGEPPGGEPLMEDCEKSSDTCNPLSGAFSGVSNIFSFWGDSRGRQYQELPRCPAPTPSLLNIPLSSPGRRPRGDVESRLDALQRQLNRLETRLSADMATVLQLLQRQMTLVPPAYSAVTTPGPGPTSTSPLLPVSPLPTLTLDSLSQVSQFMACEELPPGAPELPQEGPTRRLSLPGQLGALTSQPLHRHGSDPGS

Rattus norvegicus [19] = assay: Sleep promoting activity in Sprague-Dawley rat assessed as decrease in active wake time at 30 mg/kg, po measured over 2 hrs by electroencephalogram method; assay type: functional
Rattus norvegicus [20] = assay: Sleep promoting activity in Sprague-Dawley rat assessed as decrease in active wake time at 90 mg/kg, po measured over 2 hrs by electroencephalogram method; assay type: functional
Rattus norvegicus [21] = assay: Sleep promoting activity in Sprague-Dawley rat assessed as effect on rapid eye movement sleep time at 30 mg/kg, po measured over 2 hrs by electroencephalogram method; assay type: functional
Rattus norvegicus [22] = assay: Sleep promoting activity in Sprague-Dawley rat assessed as effect on rapid eye movement sleep time at 90 mg/kg, po measured over 2 hrs by electroencephalogram method; assay type: functional
Rattus norvegicus [23] = assay: Sleep promoting activity in Sprague-Dawley rat assessed as increase in slow wave sleep time at 30 mg/kg, po measured over 2 hrs by electroencephalogram method; assay type: functional
Rattus norvegicus [24] = assay: Sleep promoting activity in Sprague-Dawley rat assessed as increase in slow wave sleep time at 90 mg/kg, po measured over 2 hrs by electroencephalogram method; assay type: functional
Rattus norvegicus [25] = assay: Sleep promoting activity in po dosed Sprague-Dawley rat assessed as decrease in active wake time measured over 2 hrs by electroencephalogram method; assay type: functional, organism-based
Rattus norvegicus [26] = assay: Sleep promoting activity in po dosed Sprague-Dawley rat assessed as increase in slow wave sleep time measured over 2 hrs by electroencephalogram method; assay type: functional, organism-based

Structure (SMILES): COc1ccc(-n2nccn2)c(C(=O)N2C[C@@H]3CN(c4nc5cc(Cl)ccc5o4)C[C@@H]3C2)c1
IC50 [1]: 517 nM
IC50 (Orexin receptor type 2): 387 nM

Structure (SMILES): Cc1ccc(-n2nccn2)c(C(=O)N2CCC3CN(c4nc5cc(Cl)ccc5o4)CC32)c1 (configuration not stated)
IC50 [1]: 2970 nM
IC50 (Orexin receptor type 2): 354 nM

Structure (SMILES): Cc1ccc(-n2nccn2)c(C(=O)N2C[C@@H]3CN(c4nc5cc(C(F)(F)F)ccc5o4)C[C@@H]3C2)c1
IC50 [1]: 1780 nM
IC50 (Orexin receptor type 2): 508 nM

Structure (SMILES): Cc1ccc(-n2nccn2)c(C(=O)N2C[C@@H]3CN(c4nc(C)c(C)c(C)n4)C[C@@H]3C2)c1
IC50 [1]: > 10000 nM
IC50 (Orexin receptor type 2): 4850 nM

Structure (SMILES): O=C(c1cc(Cl)ccc1-n1nccn1)N1C[C@@H]2CN(c3nc4cc(Cl)ccc4o3)C[C@@H]2C1
IC50 [1]: > 10000 nM
IC50 (Orexin receptor type 2): 1270 nM

Structure (SMILES): Cc1ccc(-n2nccn2)c(C(=O)N2CCCC3CN(c4nc5cc(Cl)ccc5o4)CC32)c1 (configuration not stated)
IC50 [1]: > 10000 nM
IC50 (Orexin receptor type 2): > 10000 nM

Structure (SMILES): Cc1ccc(-n2nccn2)c(C(=O)N2C[C@@]3(F)CN(c4nc5cc(Cl)ccc5o4)C[C@@]3(F)C2)c1
IC50 [1]: 759 nM
IC50 (Orexin receptor type 2): 639 nM
IC50 [18]: > 30000 nM

Structure (SMILES): Cc1ccc(-n2nccn2)c(C(=O)N2C[C@H]3CN(Cc4nc5cc(Cl)ccc5o4)C[C@H]3C2)c1
IC50 [1]: 3240 nM
IC50 (Orexin receptor type 2): 1820 nM

Continued, in another order:

IC50 [1]: 216 nM
IC50 (Orexin receptor type 2): 108 nM
solubility thermodynamic [2]: 2.6 µM (≈ 1.15 µg/mL)
concentration at 0.3 h [3]: 567 nM
concentration at 1 h [4]: 328 nM
concentration at 4 h [5]: 24 nM
Drug uptake (Brain [6]): 80 nmol/kg
Drug uptake (Brain [7]): 43 nmol/kg
Drug uptake (Brain [8]; BLD = below limit of detection): Bld
Kp at 0.5 h [9]: 0.14
Kp at 1 h [10]: 0.13
Structure (SMILES): Cc1ccc(-n2nccn2)c(C(=O)N2C[C@@H]3CN(c4ncc5cc(F)ccc5n4)C[C@@H]3C2)c1

IC50 [1]: 226 nM
IC50 (Orexin receptor type 2): 206 nM
solubility thermodynamic [2]: < 2 µM
concentration at 0.3 h [3]: 3370 nM
concentration at 1 h [4]: 2500 nM
concentration at 4 h [5]: 409 nM
Drug uptake (Brain [6]): 643 nmol/kg
Drug uptake (Brain [7]): 376 nmol/kg
Drug uptake (Brain [8]): 111 nmol/kg
Kp at 0.5 h [9]: 0.19
Kp at 1 h [10]: 0.15
Kp at 4 h [11]: 0.27
clearance [12]: 32 mL/min/kg
half-life [13]: 43.8 min
AUC [14]: 5.4 µM·h
Cmax [15]: 2100 nM
Tmax [16]: 25.2 min
bioavailability [17]: 27%
Structure (SMILES): Cc1ccc(-n2nccn2)c(C(=O)N2C[C@@H]3CN(c4nc5cc(Cl)ccc5o4)C[C@@H]3C2)c1

IC50 [1]: 293 nM
IC50 (Orexin receptor type 2): 131 nM
solubility thermodynamic [2]: < 2 µM
concentration at 0.3 h [3]: 1260 nM
concentration at 1 h [4]: 859 nM
concentration at 4 h [5]: 77 nM
Drug uptake (Brain [6]): 74 nmol/kg
Drug uptake (Brain [7]): 42 nmol/kg
Drug uptake (Brain [8]; BLD = below limit of detection): Bld
Kp at 0.5 h [9]: 0.06
Kp at 1 h [10]: 0.05
Structure (SMILES): Cc1ccc(-n2nccn2)c(C(=O)N2C[C@@H]3CN(c4nc5cc(F)ccc5o4)C[C@@H]3C2)c1

IC50 [1]: 502 nM
IC50 (Orexin receptor type 2): 1520 nM
Structure (SMILES): O=C(c1cc(OC(F)(F)F)ccc1-n1nccn1)N1C[C@@H]2CN(c3nc4cc(Cl)ccc4o3)C[C@@H]2C1

IC50 [1]: 401 nM
IC50 (Orexin receptor type 2): 311 nM
Structure (SMILES): COc1ccc2oc(N3C[C@H]4CN(C(=O)c5cc(C)ccc5-n5nccn5)C[C@H]4C3)nc2c1

IC50 [1]: 303 nM
IC50 (Orexin receptor type 2): 178 nM
solubility thermodynamic [2]: 41 µM (≈ 17 µg/mL)
concentration at 0.3 h [3]: 8800 nM
concentration at 1 h [4]: 3470 nM
concentration at 4 h [5]: 341 nM
Drug uptake (Brain [6]): 1134 nmol/kg
Drug uptake (Brain [7]): 429 nmol/kg
Drug uptake (Brain [8]): 22 nmol/kg
Kp at 0.5 h [9]: 0.13
Kp at 1 h [10]: 0.12
Kp at 4 h [11]: 0.06
clearance [12]: 10 mL/min/kg
half-life [13]: 114 min
AUC [14]: 20.3 µM·h
Cmax [15]: 10600 nM
Tmax [16]: 15 min
bioavailability [17]: 23%
Structure (SMILES): Cc1ccc(-n2nccn2)c(C(=O)N2C[C@@H]3CN(c4nc5ccccc5o4)C[C@@H]3C2)c1
Time (Rattus norvegicus [19]): 25.7 min
Time (Rattus norvegicus [20]): 41.1 min
Time (Rattus norvegicus [21]): -0.1 min
Time (Rattus norvegicus [22]): 4.3 min
Time (Rattus norvegicus [23]): 25.9 min
Time (Rattus norvegicus [24]): 36.9 min
Activity (Rattus norvegicus [25]): Dose-dependent effect
Activity (Rattus norvegicus [26]): Dose-dependent effect
